Reference: publication PMC10062662, “Quantitative determination of lurbinectedin, its unbound fraction and its metabolites in human plasma utilizing ultra-performance LC–MS/MS” (PLOS ONE, 2023)
Where two headings read alike, the source gives them in different places.

Assays:
[1] = Stability in human K3-EDTA plasma under different test conditions; type: in vitro ADME
Method: Likewise, a wide range of long-term stability tests reflecting the sort of real-world storage issues that can occur in hospital-based clinical studies (e.g., short-term storage at -20°C before transfer to -80°C, availability of -60°C but not -80°C), was evaluated to ensure plasma samples are analyzed before degradation can occur. Therefore, the following plasma stability tests were performed: room temperature, freeze thaw (one cycle consisted of 2 hours at room temperature followed by freezing for at least 12 hours at -80°C ± 10°C) and long-term (at -20°C ± 5°C, -60°C ± 10°C and -80°C ± 10°C). For each stability test, two concentrations (LQC and HQC) and six replicates per level were analyzed. For acceptance criteria, the precision (%CV) was ≤15% and the bias when compared with the nominal concentration was ±15%. […]

[2] = type: in vitro ADME; settings: human, 120 min, 10 ng/mL
Method: To ensure correct sample collection during the clinical trial procedures, whole-blood (using K3-EDTA as anticoagulant) stability was studied by spiking the blood (lurbinectedin at 20 ng/mL and M4 and M6 at 10 ng/mL). Aliquots of the whole blood were then centrifuged at 4°C for 0, 30, 60, 90 and 120 minutes post equilibration (15 minutes at 37°C) to produce plasma, which was then frozen prior to analysis. This was performed at room temperature (and in an ice bath for lurbinectedin). The derived plasma samples were analyzed in triplicate, and the criterion for acceptance was defined as having a response within ±15% of the zero-minute sample.

[3] = Stability of stock and working solutions at -20°C; type: physicochemical; settings: 1 mg/mL in DMSO, -20°C ±5°C
Method: The stability of stock and working solutions, as well the stability of IS stock solution, following storage at -20°C ±5°C were investigated by concordance verification by comparing the stored solution against a freshly prepared one.

[4] = parameters: method as in PMID 35042701; settings: patients, radio-labeled lurbinectedin mass balance study; cited from earlier work
[5] = parameters: method as in PMID 35042701; settings: NHPs; cited from earlier work
[6] = Chemical stability of M4 reference standard on isolation; type: physicochemical; settings: column chromatography on silica gel or reversed-phase chromatography
Method: The chemical synthesis of the reference standard for M4 was not feasible. […] Therefore, M4 and M4-d4 solutions were biosynthetically obtained following the incubation of lurbinectedin and PM040038, respectively, in liver microsomes according to a three-step method described elsewhere.

[7] = 5 freeze-thaw cycles, nom. conc. 1.5 ng/mL
[8] = 5 freeze-thaw cycles, nom. conc. 16 ng/mL
[9] = -80°C ±10°C, 237 days, nom. conc. 1.5 ng/mL
[10] = -80°C ±10°C, 237 days, nom. conc. 16 ng/mL
[11] = Ambient, 21.8 hours, nom. conc. 1.5 ng/mL
[12] = Ambient, 21.8 hours, nom. conc. 16 ng/mL
[13] = -80°C ±10°C, 197 days, nom. conc. 1.5 ng/mL
[14] = -80°C ±10°C, 197 days, nom. conc. 16 ng/mL
[15] = Ambient, 6 hours, nom. conc. 1.5 ng/mL
[16] = Ambient, 6 hours, nom. conc. 16 ng/mL

Structure (SMILES): COc1ccc2[nH]c3c(c2c1)CCN[C@]31CS[C@@H]2c3c(OC(C)=O)c(C)c4c(c3[C@H](COC1=O)N1[C@@H]2[C@@H]2N[C@@H](Cc3cc(C)c(OC)c(O)c32)[C@@H]1O)OCO4 [M6, N-desmethyl-lurbinectedin]
- Bias [1, 7]: 13%
- Measured conc. [1, 7]: 1.69 ng/mL
- Bias [1, 8]: 14%
- Measured conc. [1, 8]: 18.2 ng/mL
- Bias [1, 9]: 13%
- Measured conc. [1, 9]: 1.70 ng/mL
- Bias [1, 10]: 15%
- Measured conc. [1, 10]: 18.4 ng/mL
- Bias [1, 11]: 5%
- Measured conc. [1, 11]: 1.58 ng/mL
- Bias [1, 12]: 5%
- Measured conc. [1, 12]: 16.8 ng/mL
- difference in concentration from time zero to 120 minutes [2]: -8%
- stability of stock solution in DMSO [3]: ≥ 28 days
- circulating metabolite in plasma, % compared with parent compound [4]: 10.4%
- circulating metabolite in plasma, % compared with parent compound [5]: 0.4%

Structure (SMILES): [2H]C1([2H])N[C@]2(CS[C@@H]3c4c(OC(C)=O)c(C)c5c(c4[C@H](COC2=O)N2[C@@H]3[C@@H]3N[C@@H](Cc4cc(C)c(OC)c(O)c43)[C@@H]2O)OCO5)c2[nH]c3ccc(OC)cc3c2C1([2H])[2H] [PM190539, N-Desmethyl-lurbinectedin-d4]
- stability of stock solution in DMSO [3]: ≥ 28 days

Structure (SMILES): COc1ccc2[nH]c3c(c2c1)CCN[C@]31CS[C@@H]2c3c(OC(C)=O)c(C)c(O)c(O)c3[C@H](COC1=O)N1[C@@H]2[C@H]2c3c(cc(C)c(OC)c3O)C[C@@H]([C@@H]1O)N2C [M4, 1′,3′-dihydroxy-lurbinectedin]
- Bias [1, 7]: 5%
- Measured conc. [1, 7]: 1.58 ng/mL
- Bias [1, 8]: -3%
- Measured conc. [1, 8]: 15.6 ng/mL
- Bias [1, 13]: 3%
- Measured conc. [1, 13]: 1.54 ng/mL
- Bias [1, 14]: -1%
- Measured conc. [1, 14]: 15.8 ng/mL
- Bias [1, 15]: -7%
- Measured conc. [1, 15]: 1.40 ng/mL
- Bias [1, 16]: -14%
- Measured conc. [1, 16]: 13.7 ng/mL
- difference in concentration from time zero to 120 minutes [2]: -3%
- stability on isolation by conventional methods [6]: too unstable to be isolated
- circulating metabolite in plasma, % compared with parent compound [4]: 14.3%
- circulating metabolite in plasma, % compared with parent compound [5]: 0.9%

Structure (SMILES): [2H]C1([2H])N[C@]2(CS[C@@H]3c4c(OC(C)=O)c(C)c5c(c4[C@H](COC2=O)N2[C@@H]3[C@H]3c4c(cc(C)c(OC)c4O)C[C@@H]([C@@H]2O)N3C)OCO5)c2[nH]c3ccc(OC)cc3c2C1([2H])[2H] [PM040038]
- stability of stock solution in DMSO [3]: ≥ 36 days
